Measured values from EP1620056B1, “TUMOR CYTOTOXICITY INDUCED BY MODULATORS OF THE CXCR4 RECEPTOR” (Morehouse School of Medicine, priority 2003, dated 2004).

Assays:
[1] = test system: epithelial tumor cell lines; test: Apoptotic assay of Gp 120 and Nef peptides; assay type: cell-based, human; conditions: peptide sequences within Nef or Gp 120
From the text: The nef protein was expressed and purified in the inventors' laboratory. overlapping 20 mer peptides encompassing the entire nef protein and overlapping 15 mer peptides encompassing the entire Gp 120 protein were obtained from the NIH AIDS Research & Reference Reagent Program (McKesson HBC Bio-Services, MD) Other specific peptides designed from within Gp 120 or nef were obtained from SigmaGenosys.
Apoptosis generates DNA free ends which can be labeled in situ using terminal deoxynucleotidyl-transferase (TdT), incorporating an exogenously added labeled nucleotide to the DNA strand. This label can then be visualized directly by fluorescence or indirectly using anti-FITC-peroxidase, and a colorimetric assay. Cells on coverslips were washed with PBS, and fixed for 30 minutes at RT with 4% paraformaldehyde, in PBS, pH 7.4. They were then washed with PBS, and permeabilized with 0.1% Triton X-100 for 10 minutes at room temperature (RT). The slides were rinsed twice with PBS, and air dried for 2 minutes. The manufacturer's procedure for TUNEL staining the slides was followed (manufacturer's procedure for the In Situ Cell Death Detection Kit, AP; Boehringer Mannheim, Indianapolis, IN). Total cell counts were determined by counterstaining fixed cultures with 20 µg/ml of Hoechst 33258. […]

[2] = test system: MDA-MB231, MCF7, and DU4475; test: Agarose gel electrophoresis / DNA fragmentation (DNA laddering) in CXCR4-expressing lines; assay type: cell-based, human; conditions: positive control, 10 mM (6.35 mg/ml), 24 hours, compared to untreated cultures
Protocol: Untreated or treated cells were collected, and DNA was harvested from normal or cancer cell cultures. Briefly, the cells were washed with PBS, pelleted at 1600 g for 20 minutes at 4°C, and resuspended in 50 mM Tris-HCl, pH 7.5, 20 mM EDTA buffer at about 10^7 cells/ml. The cells were then treated 2x with lysis buffer: 1.0% NP-40 (Sigma, St. Louis, MO) in the same Tris/EDTA buffer at RT for 2 minutes followed by centrifugation at 1600 g for 5 minutes. After the last spin, SDS was added to the supernatant to 1% final concentration, RNase A (Sigma, St. Louis, MO) was added to 5 mg/ml final concentration, and the solution incubated at 56°C for 2 hours. Subsequently, protease K (Promega, Madison, WI) was added to the solution to 2.5 µg/ml and incubated at 37°C for 2.5 hr. Ammonium acetate was added to 4 M final concentration, 0.7 volumes of isopropanol was added, the solution was put at -20°C overnight followed by centrifugation at 14,000 rpm for 30 minutes. The pellets were washed twice with 70% ethanol, dried and resuspended in 10 mM Tris-HCl, pH 7.5, 1 mM EDTA. DNA samples, 18 µg per condition, were prepared in neutral loading buffer to a final concentration of 0.02% bromophenol blue, 5% glycerol, 0.1% SDS, and 50 µg of ethidium bromide, loaded onto a neutral agarose gel (1.7%), and run at 50V for 2.5 hours. […]

Substance | apoptotic properties of the sequence [1] | DNA laddering [2]
ALAETCONAWA | lost all apoptotic effects | –
ceramide | – | DNA laddering characteristic of apoptotic cells was observed
